# Test results reported in US8129371B2, “Thienopyrimidine and pyrazolopyrimidine compounds and their use as mTOR kinase and PI3 kinase inhibitors” (Wyeth LLC, priority 2007, dated 2012).
# Where two headings read alike, the source gives them in different places.
# How the values were obtained:
# Human mTOR (FLAG-TOR) = biological target: T1, Human mTOR (FLAG-TOR) (Homo sapiens, UniProt P42345); experiment: Human mTOR kinase assay with purified enzyme, DELFIA format; assay type: biochemical
# T1 construct: FLAG
# In short: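 Purified FLAG-mTOR in HEPES pH 7.4 buffer with 10 mM MnCl2 was preincubated with inhibitor and reacted 2 h at room temperature with His6-S6K substrate, then stopped with EDTA/EGTA. Phospho-T389 S6K detected by DELFIA with Eu-labelled antibody (40 ng/mL) after plate capture; inhibition computed from signal.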
# PI3K [1] = biological target: T2, PI3K (Homo sapiens, UniProt P42336); experiment: Fluorescence polarization assay for PI3K; assay type: biochemical
# T2 construct: PI3 Kinase α IC50; other: PI3 Kinase α; other: PI3 Kinase α isoform, fluorescence polarization
# In short: (§1)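 PI3K was preincubated with compound (final DMSO 1%), and the reaction was started with PIP2/ATP substrate and run 30–60 min. It was stopped with a detector mix giving 10 nM red probe and 70 nM GST-GRP.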
# PI3K [2] = biological target: T3, PI3K (Homo sapiens, UniProt P48736); experiment: Fluorescence polarization assay for PI3K; assay type: biochemical
# T3 construct: PI3 Kinase γ IC50; other: PI3 Kinase γ; other: PI3 Kinase γ isoform, fluorescence polarization
# In short: as §1
# prostate line LNCap = experiment: In vitro cell culture growth assay (MTS), LNCap; assay type: cell-based; details: Homo sapiens, 72 h, LNCap cells, three days after drug treatment
# In short: (§2)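 The readout was MTS dye metabolism at 490 nm, taken after 3-day drug exposure that began the day after seeding. Growth was expressed as percent of vehicle-treated wells in the same plate.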
# breast line MDA468 = experiment: In vitro cell culture growth assay (MTS), MDA468; assay type: cell-based; details: Homo sapiens, 72 h, MDA468 cells, three days after drug treatment
# In short: as §2
# [3] = PI3 Kinase α, read-out: PI3 Kinase α IC50
# [4] = PI3 Kinase γ, read-out: PI3 Kinase γ IC50
# [5] = purified human mTOR enzyme, DELFIA format
# [6] = PI3 Kinase α isoform, fluorescence polarization, read-out: PI3 Kinase α IC50
# [7] = PI3 Kinase γ isoform, fluorescence polarization, read-out: PI3 Kinase γ IC50
# T2 sequence (P42336 whole entry, canonical isoform): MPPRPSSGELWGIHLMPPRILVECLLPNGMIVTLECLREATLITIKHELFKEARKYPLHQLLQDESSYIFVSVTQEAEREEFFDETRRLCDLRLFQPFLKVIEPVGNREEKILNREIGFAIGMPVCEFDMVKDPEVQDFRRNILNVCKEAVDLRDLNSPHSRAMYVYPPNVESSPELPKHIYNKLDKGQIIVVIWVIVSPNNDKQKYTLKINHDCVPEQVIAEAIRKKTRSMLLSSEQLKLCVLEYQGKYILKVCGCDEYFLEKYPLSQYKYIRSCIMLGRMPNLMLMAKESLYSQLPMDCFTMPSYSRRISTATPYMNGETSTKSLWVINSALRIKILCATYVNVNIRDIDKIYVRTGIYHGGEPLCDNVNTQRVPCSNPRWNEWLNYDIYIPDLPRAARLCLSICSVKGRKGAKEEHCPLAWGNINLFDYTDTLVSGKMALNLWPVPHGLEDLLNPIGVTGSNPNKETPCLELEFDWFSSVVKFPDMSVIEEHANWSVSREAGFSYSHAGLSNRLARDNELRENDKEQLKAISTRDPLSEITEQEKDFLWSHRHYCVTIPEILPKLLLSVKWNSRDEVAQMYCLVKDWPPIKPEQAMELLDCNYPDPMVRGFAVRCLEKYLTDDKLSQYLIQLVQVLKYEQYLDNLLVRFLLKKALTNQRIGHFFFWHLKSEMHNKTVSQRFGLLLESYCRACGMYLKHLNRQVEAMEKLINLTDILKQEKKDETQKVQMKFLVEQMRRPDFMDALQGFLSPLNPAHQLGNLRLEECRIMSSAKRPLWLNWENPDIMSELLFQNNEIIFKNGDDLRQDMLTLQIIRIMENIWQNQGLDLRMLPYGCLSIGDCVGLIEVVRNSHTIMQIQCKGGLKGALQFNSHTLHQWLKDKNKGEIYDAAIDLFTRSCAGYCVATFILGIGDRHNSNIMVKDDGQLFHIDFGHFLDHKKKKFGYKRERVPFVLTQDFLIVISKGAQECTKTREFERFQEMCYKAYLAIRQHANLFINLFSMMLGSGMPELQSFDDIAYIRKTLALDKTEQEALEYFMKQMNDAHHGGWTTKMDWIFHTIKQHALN
# T3 sequence (P48736 whole entry, canonical isoform): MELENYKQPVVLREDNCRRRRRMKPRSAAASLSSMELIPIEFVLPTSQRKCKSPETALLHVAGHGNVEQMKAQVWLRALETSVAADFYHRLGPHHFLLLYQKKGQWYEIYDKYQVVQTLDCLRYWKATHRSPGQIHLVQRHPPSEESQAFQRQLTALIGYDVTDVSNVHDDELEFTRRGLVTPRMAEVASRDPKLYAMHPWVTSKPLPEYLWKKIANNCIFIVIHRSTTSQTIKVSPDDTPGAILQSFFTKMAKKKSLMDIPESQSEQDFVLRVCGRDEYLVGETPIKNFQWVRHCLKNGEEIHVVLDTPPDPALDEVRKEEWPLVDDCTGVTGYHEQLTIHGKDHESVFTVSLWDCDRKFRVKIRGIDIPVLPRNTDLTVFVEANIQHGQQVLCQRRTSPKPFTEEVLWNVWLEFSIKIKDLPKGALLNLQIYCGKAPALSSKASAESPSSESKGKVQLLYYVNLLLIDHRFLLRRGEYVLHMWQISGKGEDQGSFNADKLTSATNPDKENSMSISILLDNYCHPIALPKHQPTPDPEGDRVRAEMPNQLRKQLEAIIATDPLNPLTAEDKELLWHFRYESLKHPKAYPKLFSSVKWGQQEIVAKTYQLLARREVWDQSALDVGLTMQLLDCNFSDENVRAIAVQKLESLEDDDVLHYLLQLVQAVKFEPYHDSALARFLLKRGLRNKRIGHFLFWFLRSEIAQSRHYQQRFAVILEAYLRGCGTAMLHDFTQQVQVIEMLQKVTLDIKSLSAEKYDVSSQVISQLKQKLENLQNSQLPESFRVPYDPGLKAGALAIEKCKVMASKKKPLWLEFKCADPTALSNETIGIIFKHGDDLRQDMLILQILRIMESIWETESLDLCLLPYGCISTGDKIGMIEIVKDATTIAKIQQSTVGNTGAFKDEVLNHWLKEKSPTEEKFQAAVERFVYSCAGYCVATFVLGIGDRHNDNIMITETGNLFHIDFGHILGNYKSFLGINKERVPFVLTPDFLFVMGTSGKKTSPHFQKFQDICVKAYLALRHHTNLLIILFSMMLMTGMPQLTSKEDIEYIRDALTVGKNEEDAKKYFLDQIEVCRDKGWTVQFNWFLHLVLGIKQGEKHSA
smiles,measurement,setting,value
"CCNC(=O)Nc1ccc(-c2nc(N3CC4CCC(C3)O4)c3cnn(C4CCN(C(=O)OCC)CC4)c3n2)cc1 [Example 31, ethyl 4-[6-{4-[(ethylcarbamoyl)amino]phenyl}-4-(8-oxa-3-azabicyclo[3.2.1]oct-3-yl)-1H-pyrazolo[3,4-d]pyrimidin-1-yl]piperidine-1-carboxylate]",IC50,Human mTOR (FLAG-TOR),0.36 nM
same,IC50,PI3K [1]; [3],1890 nM
same,IC50,PI3K [2]; [4],11 µM
same,IC50,prostate line LNCap; LNCaP,0.8 nM
same,IC50,breast line MDA468,70 nM
"CCn1ncc2c(N3CC4CCC(C3)O4)nc(-c3ccc(NC(=O)Nc4ccc(N(C)C)nc4)cc3)nc21 [Example 284, 1-[6-(dimethylamino)pyridin-3-yl]-3-{4-[1-ethyl-4-(8-oxa-3-azabicyclo[3.2.1]oct-3-yl)-1H-pyrazolo[3,4-d]pyrimidin-6-yl]phenyl}urea]",IC50,Human mTOR (FLAG-TOR),1.5 nM
same,IC50,PI3K [1]; [3],419 nM
same,IC50,PI3K [2]; [4],> 10 µM
same,IC50,prostate line LNCap; LNCaP,6 nM
same,IC50,breast line MDA468,80 nM
"Nc1ccc(-c2nc(N3CC4CCC(C3)O4)c3cnn(C4CCC5(CC4)OCCO5)c3n2)cc1 [Example 81, 4-[1-(1,4-dioxaspiro[4.5]dec-8-yl)-4-(8-oxa-3-azabicyclo[3.2.1]oct-3-yl)-1H-pyrazolo[3,4-d]pyrimidin-6-yl]aniline]",IC50,Human mTOR (FLAG-TOR),54 nM
same,IC50,PI3K [1]; [3],> 10000 nM
same,IC50,PI3K [2]; [4],> 10 µM
same,IC50,prostate line LNCap; LNCaP,1050 nM
same,IC50,breast line MDA468,5800 nM
"CNC(=O)Nc1ccc(-c2nc(N3CC4CCC(C3)O4)c3cnn(C4CCC5(CC4)OCCCO5)c3n2)cc1 [Example 151, 1-{4-[1-(1,5-dioxaspiro[5.5]undec-9-yl)-4-(8-oxa-3-azabicyclo[3.2.1]oct-3-yl)-1H-pyrazolo[3,4-d]pyrimidin-6-yl]phenyl}-3-methylurea]",IC50,Human mTOR (FLAG-TOR),1.19 nM
same,IC50,PI3K [1]; [3],363 nM
same,IC50,PI3K [2]; [4],> 10 µM
same,IC50,prostate line LNCap; LNCaP,8 nM
same,IC50,breast line MDA468,130 nM
"Cn1ncc2c(N3CC4CCC(C3)O4)nc(-c3ccc(NC(=O)Nc4ccccc4)cc3)nc21 [Example 55, 1-{4-[1-methyl-4-(8-oxa-3-azabicyclo[3.2.1]oct-3-yl)-1H-pyrazolo[3,4-d]pyrimidin-6-yl]phenyl}-3-phenylurea]",IC50,Human mTOR (FLAG-TOR),0.66 nM
same,IC50,PI3K [1]; [3],74 nM
same,IC50,PI3K [2]; [4],0.648 µM
same,IC50,prostate line LNCap; LNCaP,0.8 nM
same,IC50,breast line MDA468,32 nM
"CNC(=O)Nc1ccc(-c2nc(N3C4CCC3COC4)c3cnn(CC(F)(F)F)c3n2)cc1 [Example 267, 1-methyl-3-{4-[4-(3-oxa-8-azabicyclo[3.2.1]oct-8-yl)-1-(2,2,2-trifluoroethyl)-1H-pyrazolo[3,4-d]pyrimidin-6-yl]phenyl}urea]",IC50,Human mTOR (FLAG-TOR),0.565 nM
same,IC50,PI3K [1]; [3],1370 nM
same,IC50,PI3K [2]; [4],9 µM
same,IC50,prostate line LNCap; LNCaP,9 nM
same,IC50,breast line MDA468,40 nM
"CCn1ncc2c(N3CC4CCC(C3)O4)nc(-c3ccc(NC(=O)Nc4ccc(OCCO)cc4)cc3)nc21 [Example 281, 1-{4-[1-ethyl-4-(8-oxa-3-azabicyclo[3.2.1]oct-3-yl)-1H-pyrazolo[3,4-d]pyrimidin-6-yl]phenyl}-3-[4-(2-hydroxyethoxy)phenyl]urea]",IC50,Human mTOR (FLAG-TOR),1.07 nM
same,IC50,PI3K [1]; [3],173 nM
same,IC50,PI3K [2]; [4],1.1 µM
same,IC50,prostate line LNCap; LNCaP,4 nM
same,IC50,breast line MDA468,19 nM
"COC1CCC(n2ncc3c(N4CC5CCC(C4)O5)nc(-c4ccc(NC(=O)Nc5ccc(N6CCNCC6)cc5)cc4)nc32)CC1 (stereo not shown) [Example 305, 1-{4-[1-(4-methoxycyclohexyl)-4-(8-oxa-3-azabicyclo[3.2.1]oct-3-yl)-1H-pyrazolo[3,4-d]pyrimidin-6-yl]phenyl}-3-(4-piperazin-1-ylphenyl)urea]",IC50,Human mTOR (FLAG-TOR); [5],0.25 nM
same,IC50,PI3K [1]; [6],182 nM
same,IC50,PI3K [2]; [7],1.52 µM
same,IC50,prostate line LNCap; LNCaP,< 1 nM
same,IC50,breast line MDA468,1 nM
"CCOC(=O)N1CCC(n2ncc3c(N4CC5CCC(C4)O5)nc(-c4ccc(NC(=O)NCCCNC)cc4)nc32)CC1 [Example 38, ethyl 4-{6-[4-({[3-(methylamino)propyl]carbamoyl}amino)phenyl]-4-(8-oxa-3-azabicyclo[3.2.1]oct-3-yl)-1H-pyrazolo[3,4-d]pyrimidin-1-yl}piperidine-1-carboxylate]",IC50,Human mTOR (FLAG-TOR),5.3 nM
same,IC50,PI3K [1]; [3],1760 nM
same,IC50,PI3K [2]; [4],11 µM
same,IC50,prostate line LNCap; LNCaP,4400 nM
same,IC50,breast line MDA468,7000 nM
"CCNC(=O)Nc1ccc(-c2nc(N3CC4CCC(C3)O4)c3cnn(C(COC)COC)c3n2)cc1 [Example 320, 1-ethyl-3-(4-{1-[2-methoxy-1-(methoxymethyl)ethyl]-4-(8-oxa-3-azabicyclo[3.2.1]oct-3-yl)-1H-pyrazolo[3,4-d]pyrimidin-6-yl}phenyl)urea]",IC50,Human mTOR (FLAG-TOR); [5],9.1 nM
same,IC50,PI3K [1]; [6],1950 nM
same,IC50,PI3K [2]; [7],> 10 µM
same,IC50,prostate line LNCap; LNCaP,160 nM
same,IC50,breast line MDA468,590 nM
"COC1CCC(n2ncc3c(N4CC5CCC(C4)O5)nc(-c4ccc(NC(=O)OCCO)cc4)nc32)CC1 (stereo not shown) [Example 311, 2-hydroxyethyl {4-[1-(4-methoxycyclohexyl)-4-(8-oxa-3-azabicyclo[3.2.1]oct-3-yl)-1H-pyrazolo[3,4-d]pyrimidin-6-yl]phenyl}carbamate]",IC50,Human mTOR (FLAG-TOR); [5],0.86 nM
same,IC50,PI3K [1]; [6],3840 nM
same,IC50,PI3K [2]; [7],> 10 µM
same,IC50,prostate line LNCap; LNCaP,2 nM
same,IC50,breast line MDA468,120 nM
"N#CCCn1ncc2c(N3CC4CCC(C3)O4)nc(-c3ccc(NC(=O)Nc4ccc(CCO)cc4)cc3)nc21 [Example 219, 1-{4-[1-(2-cyanoethyl)-4-(8-oxa-3-azabicyclo[3.2.1]oct-3-yl)-1H-pyrazolo[3,4-d]pyrimidin-6-yl]phenyl}-3-[4-(2-hydroxyethyl)phenyl]urea]",IC50,Human mTOR (FLAG-TOR),0.082 nM
same,IC50,PI3K [1]; [3],44 nM
same,IC50,PI3K [2]; [4],1.38 µM
same,IC50,prostate line LNCap; LNCaP,< 1 nM
same,IC50,breast line MDA468,< 1 nM
"O=C(Nc1ccccc1)Nc1ccc(-c2nc(N3CC4CCC(C3)O4)c3cnn(CCO)c3n2)cc1 [Example 198, 1-{4-[1-(2-hydroxyethyl)-4-(8-oxa-3-azabicyclo[3.2.1]oct-3-yl)-1H-pyrazolo[3,4-d]pyrimidin-6-yl]phenyl}-3-phenylurea]",IC50,Human mTOR (FLAG-TOR),0.685 nM
same,IC50,PI3K [1]; [3],68 nM
same,IC50,PI3K [2]; [4],1.93 µM
same,IC50,prostate line LNCap; LNCaP,28 nM
same,IC50,breast line MDA468,190 nM
"CC(C)OC(=O)N1CCC(n2ncc3c(N4CC5CCC(C4)O5)nc(-c4ccc(NC(=O)NCCF)cc4)nc32)CC1 [Example 68, isopropyl 4-[6-(4-{[(2-fluoroethyl)carbamoyl]amino}phenyl)-4-(8-oxa-3-azabicyclo[3.2.1]oct-3-yl)-1H-pyrazolo[3,4-d]pyrimidin-1-yl]piperidine-1-carboxylate]",IC50,Human mTOR (FLAG-TOR),0.27 nM
same,IC50,PI3K [1]; [3],3150 nM
same,IC50,PI3K [2]; [4],> 10 µM
same,IC50,prostate line LNCap; LNCaP,18 nM
same,IC50,breast line MDA468,180 nM
"Nc1ccc(-c2nc(N3CC4CCC(C3)O4)c3cnn(CCO)c3n2)cc1 [Example 207, 2-[6-(4-aminophenyl)-4-(8-oxa-3-azabicyclo[3.2.1]oct-3-yl)-1H-pyrazolo[3,4-d]pyrimidin-1-yl]ethanol]",IC50,Human mTOR (FLAG-TOR),145 nM
same,IC50,PI3K [1]; [3],3590 nM
same,IC50,PI3K [2]; [4],> 10 µM
same,IC50,prostate line LNCap; LNCaP,14000 nM
same,IC50,breast line MDA468,38000 nM
"CN(C)c1cccc(OC(=O)Nc2ccc(-c3nc(N4CC5CCC(C4)O5)c4cnn(CC(F)(F)F)c4n3)cc2)c1 [Example 256, 3-(dimethylamino)phenyl {4-[4-(8-oxa-3-azabicyclo[3.2.1]oct-3-yl)-1-(2,2,2-trifluoroethyl)-1H-pyrazolo[3,4-d]pyrimidin-6-yl]phenyl}carbamate]",IC50,Human mTOR (FLAG-TOR),195 nM
same,IC50,PI3K [1],> 10000 nM
same,IC50,PI3K [2],> 10 µM
same,IC50,prostate line LNCap,3500 nM
same,IC50,breast line MDA468,18000 nM
"COC(=O)N1CCC(n2ncc3c(N4CC5CCC(C4)O5)nc(-c4ccc(NC(=O)OCCN(C)C)cc4)nc32)CC1 [Example 115, methyl 4-{6-[4-({[2-(dimethylamino)ethoxy]carbonyl}amino)phenyl]-4-(8-oxa-3-azabicyclo[3.2.1]oct-3-yl)-1H-pyrazolo[3,4-d]pyrimidin-1-yl}piperidine-1-carboxylate]",IC50,Human mTOR (FLAG-TOR),360 nM
same,IC50,PI3K [1]; [3],5060 nM
same,IC50,PI3K [2]; [4],8.93 µM
same,IC50,prostate line LNCap; LNCaP,1600 nM
same,IC50,breast line MDA468,4600 nM
"COC1CCC(n2ncc3c(N4CC5CCC(C4)O5)nc(-c4ccc(NC(=O)Nc5ccc(C(=O)NN6CCCC6)cc5)cc4)nc32)CC1 (stereo not shown) [Example 307, 4-[({4-[1-(4-methoxycyclohexyl)-4-(8-oxa-3-azabicyclo[3.2.1]oct-3-yl)-1H-pyrazolo[3,4-d]pyrimidin-6-yl]phenyl}carbamoyl)amino]-N-pyrrolidin-1-ylbenzamide]",IC50,Human mTOR (FLAG-TOR); [5],0.145 nM
same,IC50,PI3K [1]; [6],404 nM
same,IC50,PI3K [2]; [7],4.96 µM
same,IC50,prostate line LNCap; LNCaP,< 1 nM
same,IC50,breast line MDA468,2 nM
"CNC(=O)Nc1ccc(-c2nc(N3CC4CCC(C3)O4)c3cnn(C4CCN(C(=O)OC)CC4)c3n2)cc1 [Example 7, methyl 4-[6-{4-[(methylcarbamoyl)amino]phenyl}-4-(8-oxa-3-azabicyclo[3.2.1]oct-3-yl)-1H-pyrazolo[3,4-d]pyrimidin-1-yl]piperidine-1-carboxylate]",IC50,Human mTOR (FLAG-TOR),0.21 nM
same,IC50,PI3K [1]; [3],1800 nM
same,IC50,PI3K [2]; [4],> 10 µM
same,IC50,prostate line LNCap; LNCaP,26 nM
same,IC50,breast line MDA468,80 nM
"O=C(Nc1ccc(-c2nc(N3CC4CCC(C3)O4)c3cnn(CC(F)(F)F)c3n2)cc1)Nc1cccc(CO)c1 [Example 255, 1-[3-(hydroxymethyl)phenyl]-3-{4-[4-(8-oxa-3-azabicyclo[3.2.1]oct-3-yl)-1-(2,2,2-trifluoroethyl)-1H-pyrazolo[3,4-d]pyrimidin-6-yl]phenyl}urea]",IC50,Human mTOR (FLAG-TOR),0.595 nM
same,IC50,PI3K [1]; [3],105 nM
same,IC50,PI3K [2]; [4],0.73 µM
same,IC50,prostate line LNCap; LNCaP,6 nM
same,IC50,breast line MDA468,30 nM
